Source: article PMC3750255, “Inhibition of Mycoplasma pneumoniae growth by FDA-approved anticancer and antiviral nucleoside and nucleobase analogs” (BMC Microbiology, 2013)

Assays:
[1] = tested on: Mpn wild type cells; assay: Uptake and metabolism of tritium labelled natural nucleoside and nucleobases in the presence of analogs; format: cell-based, Mycoplasma pneumoniae
Description: The cells were harvested and analyzed essentially as described. Analogs used were dipyridamole, 6-thioguanine (6-TG), trifluorothymidine (TFT), gemcitabine (dFdC) and 5-fluorodeoxyuridine (5FdU). Total uptake is the percent of radioactivity recovered in the cells divided by total radioactivity added to the growth medium. Percent of acid insoluble (radioactivity found in DNA and RNA) was also calculated. These experiments were done more than three times and data are given as mean ± SD.

[2] = biological target: T1, human TK2 (Homo sapiens, UniProt O00142); assay: Thymidine kinase inhibition with [3H]-dT as substrate; format: biochemical; conditions: 10 μM tritium labelled thymidine
T1 construct: made in house
T1 sequence (O00142 34-265): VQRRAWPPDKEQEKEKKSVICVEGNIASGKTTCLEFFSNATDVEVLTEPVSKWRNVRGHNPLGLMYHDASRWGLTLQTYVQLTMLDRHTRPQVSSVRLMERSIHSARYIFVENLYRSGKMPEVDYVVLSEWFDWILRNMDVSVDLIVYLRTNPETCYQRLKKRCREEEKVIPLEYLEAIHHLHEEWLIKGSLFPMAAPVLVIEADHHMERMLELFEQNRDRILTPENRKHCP
Description: (§1) Thymidine kinase assay was performed using tritium labelled thymidine ([^3H]-dT) as substrate and various concentrations of the inhibitors essentially as previously described to determine the IC50 values of TFT and 5FdU.

[3] = biological target: T2, human TK1 (Homo sapiens, UniProt P04183); assay: as above; format: biochemical; conditions: 10 μM tritium labelled thymidine
T2 construct: made in house
T2 sequence (P04183 1-234): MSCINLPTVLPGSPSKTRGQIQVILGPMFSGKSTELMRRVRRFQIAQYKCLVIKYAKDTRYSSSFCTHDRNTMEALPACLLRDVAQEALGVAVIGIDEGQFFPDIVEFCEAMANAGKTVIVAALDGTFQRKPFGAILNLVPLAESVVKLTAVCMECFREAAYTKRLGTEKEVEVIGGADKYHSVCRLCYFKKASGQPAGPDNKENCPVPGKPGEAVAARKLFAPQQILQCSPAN
Description: as §1

[4] = biological target: T3, Ureaplasma TK (Ureaplasma parvum serovar 3, UniProt Q9PPP5); assay: as above; format: biochemical; conditions: 10 μM tritium labelled thymidine
T3 construct: made in house
T3 sequence (Q9PPP5 1-223): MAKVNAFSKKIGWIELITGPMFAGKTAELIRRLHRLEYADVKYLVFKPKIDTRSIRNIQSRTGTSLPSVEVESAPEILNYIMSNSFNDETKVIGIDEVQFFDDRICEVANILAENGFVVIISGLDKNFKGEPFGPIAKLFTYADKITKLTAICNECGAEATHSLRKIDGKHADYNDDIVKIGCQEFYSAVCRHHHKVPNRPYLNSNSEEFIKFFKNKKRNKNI
Description: as §1

[5] = tested on: Mpn TK; assay: TK activity in total protein extracts of Mpn cultured with TFT; format: cell-based, Mycoplasma pneumoniae; conditions: 10 μM TFT, 70 hours culture
Description: Total proteins were extracted from these cultures and used to determine the TK and TS activity.
Mpn wild type cells were cultured in the presence of [^3H]-dT and different concentrations of TFT. The cells were incubated at 37°C for 70 hours and harvested. The total uptake and incorporation of [^3H]-dT were analysed, and TK and TS activity were determined in total protein extracts.
To determine the effect of TFT on TK and TS activity, Mpn wild type cells were cultured in 75 cm^2 tissue culture flasks containing 50 ml medium, inoculated with 3 ml of stock culture (1 × 10^9 cfu/ml), in the presence of [^3H]-dT (1 μCi ml^-1) and different concentrations of TFT. After 70 hours at 37°C the cultures were harvested and divided to two aliquots, one was used to determine total uptake/metabolism of radiolabeled dT and total proteins were extracted from the other aliquot and used to measure TK and TS activity using [^3H]-dT and [5-^3H]-dUMP as substrates.

[6] = biological target: T1, human TK2; assay: TFT phosphorylation kinetics, phosphoryl transfer assay; format: biochemical; conditions: 100 μM [γ-32P]-ATP
Description: (§2) Figure 3 Substrate saturation curves of TFT with human TK2 (A), human TK1 (B), and Ureaplasma TK (C). Kinetic assays with TFT were performed by using [γ-^32P]-ATP as the labelled substrate at fixed concentration and variable concentrations of TFT. The reaction products were separated by thin layer chromatography, and quantified as described in the experimental procedures.
(§3) Kinetic parameters for TFT were determined by using the phosphoryl transfer assays as previously described. Briefly, each reaction was performed in a total volume of 20 μl containing 50 mM Tris/HCl, pH 7.5, 0.5 mg/ml BSA, 5 mM DTT, 2 mM MgCl2, 15 mM NaF, variable concentrations of TFT, 0.1 mM [γ-^32P]-ATP, and 50 ng purified enzyme at 37°C for 20 min, and stopped by heating at 70°C for 2 min. After brief centrifugation, 1 μl supernatant was spotted onto a TLC plate (PEI-cellulose, Merck) and dried. The TLC plates were developed in isobutyric acid/ammonia/H2O (66:1:33). The reaction products were visualized and quantified by phosphoimaging analysis (Quantity One, Bio-Rad).

[7] = biological target: T2, human TK1; assay: as above; format: biochemical; conditions: 100 μM [γ-32P]-ATP
Description: as §2, §3

[8] = biological target: T3, Ureaplasma TK; assay: as above; format: biochemical; conditions: 100 μM [γ-32P]-ATP
Description: as §2, §3

[9] = 10 μM analog, 70 hours, 37°C, radioactivity in cells / total added
[10] = 10 μM analog, 70 hours, acid insoluble fraction / total in cells

O=c1[nH]c(=O)n([C@H]2C[C@H](O)[C@@H](CO)O2)cc1C(F)(F)F [Trifluorothymidine (TFT), Trifluorothymidine]
Stimulation of [3H]-dT uptake ([1]; 10 μM analog versus control): 2 fold | [3H]-Ade Total uptake [1, 9]: 0.43±0.01% | [3H]-Gua Total uptake [1, 9]: 0.19±0.02% | [3H]-Hx Total uptake [1, 9]: 0.011± 0.001% | [3H]-Ura Total uptake [1, 9]: 0.11±0.002% | [3H]-dT Total uptake [1, 9]: 18.2±0.6% | [3H]-Ade Incorporation [1, 10]: 48±2% | [3H]-Gua Incorporation [1, 10]: 85±4% | [3H]-Hx Incorporation [1, 10]: 67±1% | [3H]-Ura Incorporation [1, 10]: 27±0.2% | [3H]-dT Incorporation [1, 10]: 97.4±0.5% | IC50 [2]: 80 ± 5.6 µM | IC50 [3]: 9.7 ± 3.2 µM | IC50 [4]: 12 ± 4.2 µM | TK activity relative to controls [5]: ~ 3 times | kcat [6]: 0.026 ± 0.003 s⁻¹ | Km ([6]; TFT 1 – 100 μM): 8.8 ± 3.8 µM | kcat [7]: 0.043 ± 0.003 s⁻¹ | Km ([7]; TFT 1 – 100 μM): 5.9 ± 1.7 µM | kcat [8]: 0.055 ± 0.008 s⁻¹ | Km ([8]; TFT 1 – 100 μM): 9.9 ± 5.2 µM
